Source: US6479435B1, “Diaryl ethers and processes for their preparation and herbicidal and desiccant compositions containing them” (ISK Americas Incorporated, priority 1997, dated 2002)

Experiments:
Assay type in all cases: in vivo
[1] = tested on: Johnsongrass (Sorghum halepense, SORHA); experiment: Pre-emerge greenhouse herbicide test, phytotoxicity rating; conditions: 14 days after application, rating scale 0-100
Method in brief: (§1)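 Seeds sown in sandy loam mix one day before track-sprayer application of compounds in acetone at 125–1000 g ai/ha (187 l/ha), then surface-watered to incorporate and bottom-watered. Visual rating 14 days after application on a 0–100 scale (0 = no damage, 100 = all plants dead).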

[2] = tested on: barnyardgrass (Echinochloa crusgalli, ECHCG); experiment: as above; conditions: 14 days after application, rating scale 0-100
Method in brief: as §1

[3] = tested on: common ragweed (Ambrosia artemisiifolia L., AMBEL); experiment: as above; conditions: 14 days after application, rating scale 0-100
Method in brief: as §1

[4] = tested on: green foxtail (Setaria viridis, SETVI); experiment: as above; conditions: 14 days after application, rating scale 0-100
Method in brief: as §1

[5] = tested on: ivyleaf morningglory (Ipomoea hederacea, IPOHE); experiment: as above; conditions: 14 days after application, rating scale 0-100
Method in brief: as §1

[6] = tested on: lambsquarters (Chenopodium album, CHEAL); experiment: as above; conditions: 14 days after application, rating scale 0-100
Method in brief: as §1

[7] = tested on: large crabgrass (Digitaria sanguinalis, DIGSA); experiment: as above; conditions: 14 days after application, rating scale 0-100
Method in brief: as §1

[8] = tested on: redroot pigweed (Amaranthus retroflexus, AMARE); experiment: as above; conditions: 14 days after application, rating scale 0-100
Method in brief: as §1

[9] = tested on: sicklepod (Cassia obtusifolia, CASOB); experiment: as above; conditions: 14 days after application, rating scale 0-100
Method in brief: as §1

[10] = tested on: velvetleaf (Abutilon theophrasti, ABUTH); experiment: as above; conditions: 14 days after application, rating scale 0-100
Method in brief: as §1

[11] = tested on: field corn (Zea mays L., var. Dekalb 535, CORN); experiment: Pre-emerge greenhouse test, crop damage rating; conditions: 14 days after application, rating scale 0-100
Method in brief: as §1

[12] = tested on: upland rice (Oryza sp., var.Tebonnet, RICE); experiment: Pre-emerge greenhouse test, crop damage rating; conditions: 14 days after application, rating scale 0-100
Method in brief: as §1

[13] = tested on: soybean (Glycine max L., var. Pella 86, SOY); experiment: Pre-emerge greenhouse test, crop damage rating; conditions: 14 days after application, rating scale 0-100
Method in brief: as §1

[14] = tested on: common ragweed (Ambrosia artemisiifolia L., AMBEL); experiment: Post-emerge greenhouse herbicide test, phytotoxicity rating; conditions: 14 days after application
Method in brief: (§2)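 Compounds in acetone with 0.25% v/v non-ionic surfactant were track-sprayed at 187 l/ha over plants at the 2-3 leaf stage, at 63 to 1000 g ai/ha. Pots were bottom-watered. Injury was scored visually 14 days later on a 0-100 scale, where 0 is no damage and 100 is complete plant death.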

[15] = tested on: Johnsongrass (Sorghum halepense, SORHA); experiment: as above; conditions: 14 days after application
Method in brief: as §2

[16] = tested on: barnyardgrass (Echinochloa crusgalli, ECHCG); experiment: as above; conditions: 14 days after application
Method in brief: as §2

[17] = tested on: green foxtail (Setaria viridis, SETVI); experiment: as above; conditions: 14 days after application
Method in brief: as §2

[18] = tested on: ivyleaf morningglory (Ipomoea hederacea, IPOHE); experiment: as above; conditions: 14 days after application
Method in brief: as §2

[19] = tested on: lambsquarters (Chenopodium album, CHEAL); experiment: as above; conditions: 14 days after application
Method in brief: as §2

[20] = tested on: large crabgrass (Digitaria sanguinalis, DIGSA); experiment: as above; conditions: 14 days after application
Method in brief: as §2

[21] = tested on: redroot pigweed (Amaranthus retroflexus, AMARE); experiment: as above; conditions: 14 days after application
Method in brief: as §2

[22] = tested on: velvetleaf (Abutilon theophrasti, ABUTH); experiment: as above; conditions: 14 days after application
Method in brief: as §2

[23] = tested on: field corn (Zea mays L., var. Dekalb 535, CORN); experiment: Post-emerge greenhouse test, crop damage rating; conditions: 14 days after application
Method in brief: as §2

[24] = tested on: upland rice (Oryza sp., var.Tebonnet, RICE); experiment: Post-emerge greenhouse test, crop damage rating; conditions: 14 days after application
Method in brief: as §2

[25] = tested on: soybean (Glycine max L., var. Pella 86, SOY); experiment: Post-emerge greenhouse test, crop damage rating; conditions: 14 days after application
Method in brief: as §2

For `Cn1nc(-c2cc(Oc3ccc(C#N)cn3)c(Cl)cc2F)c(Cl)c1C(F)(F)F` [Compound 1-4], the “phytotoxicity rating SORHA” value ([1]; 125 g ai/ha) was 20, the “phytotoxicity rating SORHA” value ([1]; 500 g ai/ha) was 95 and the “phytotoxicity rating ECHCG” value ([2]; 125 g ai/ha) was 0. The “phytotoxicity rating ECHCG” value ([2]; 500 g ai/ha) was 20, the “phytotoxicity rating AMBEL” value ([3]; 125 g ai/ha) was 0 and the “phytotoxicity rating AMBEL” value ([3]; 500 g ai/ha) was 20. The “phytotoxicity rating SETVI” value ([4]; 125 g ai/ha) was 90, the “phytotoxicity rating SETVI” value ([4]; 500 g ai/ha) was 99 and the “phytotoxicity rating IPOHE” value ([5]; 125 g ai/ha) was 0. The “phytotoxicity rating IPOHE” value ([5]; 500 g ai/ha) was 30, the “phytotoxicity rating CHEAL” value ([6]; 125 g ai/ha) was 90 and the “phytotoxicity rating CHEAL” value ([6]; 500 g ai/ha) was 95. The “phytotoxicity rating DIGSA” value ([7]; 125 g ai/ha) was 50, the “phytotoxicity rating DIGSA” value ([7]; 500 g ai/ha) was 50 and the “phytotoxicity rating AMARE” value ([8]; 125 g ai/ha) was 100. For the same compound, the “phytotoxicity rating AMARE” value ([8]; 500 g ai/ha) was 100, the “phytotoxicity rating CASOB” value ([9]; 125 g ai/ha) was 0 and the “phytotoxicity rating CASOB” value ([9]; 500 g ai/ha) was 0. For the same compound, the “phytotoxicity rating ABUTH” value ([10]; 125 g ai/ha) was 0, the “phytotoxicity rating ABUTH” value ([10]; 500 g ai/ha) was 80 and the “crop damage rating CORN” value ([11]; 125 g ai/ha) was 10. For the same compound, the “crop damage rating CORN” value ([11]; 500 g ai/ha) was 0, the “crop damage rating RICE” value ([12]; 125 g ai/ha) was 30 and the “crop damage rating SOY” value ([13]; 125 g ai/ha) was 10. For the same compound, the “crop damage rating SOY” value ([13]; 500 g ai/ha) was 0, the “AMBEL phytotoxicity rating (0-100)” value ([14]; 63 g al/ha) was 20 and the “AMBEL phytotoxicity rating (0-100)” value ([14]; 500 g al/ha) was 70. For the same compound, the “SORHA phytotoxicity rating (0-100)” value ([15]; 63 g al/ha) was 40, the “SORHA phytotoxicity rating (0-100)” value ([15]; 500 g al/ha) was 80 and the “ECHCG phytotoxicity rating (0-100)” value ([16]; 63 g al/ha) was 0. For the same compound, the “ECHCG phytotoxicity rating (0-100)” value ([16]; 500 g al/ha) was 50, the “SETVI phytotoxicity rating (0-100)” value ([17]; 63 g al/ha) was 0 and the “SETVI phytotoxicity rating (0-100)” value ([17]; 500 g al/ha) was 70. The “IPOHE phytotoxicity rating (0-100)” value ([18]; 63 g al/ha) was 70, the “IPOHE phytotoxicity rating (0-100)” value ([18]; 500 g al/ha) was 100 and the “CHEAL phytotoxicity rating (0-100)” value ([19]; 63 g al/ha) was 0. The “CHEAL phytotoxicity rating (0-100)” value ([19]; 500 g al/ha) was 100, the “DIGSA phytotoxicity rating (0-100)” value ([20]; 63 g al/ha) was 20 and the “DIGSA phytotoxicity rating (0-100)” value ([20]; 500 g al/ha) was 40. For the same compound, the “AMARE phytotoxicity rating (0-100)” value ([21]; 63 g al/ha) was 100, the “AMARE phytotoxicity rating (0-100)” value ([21]; 500 g al/ha) was 100 and the “ABUTH phytotoxicity rating (0-100)” value ([22]; 63 g al/ha) was 30. The “ABUTH phytotoxicity rating (0-100)” value ([22]; 500 g al/ha) was 90, the “CORN crop damage rating (0-100)” value ([23]; 63 g al/ha) was 0 and the “CORN crop damage rating (0-100)” value ([23]; 500 g al/ha) was 0. The “RICE crop damage rating (0-100)” value ([24]; 63 g al/ha) was 20, the “RICE crop damage rating (0-100)” value ([24]; 500 g al/ha) was 50 and the “SOY crop damage rating (0-100)” value ([25]; 63 g al/ha) was 0. For the same compound, the “SOY crop damage rating (0-100)” value ([25]; 500 g al/ha) was 80.
In the case of `Cn1nc(-c2cc(Oc3cccc(F)n3)c(Cl)cc2F)c(Cl)c1C(F)(F)F` [Compound 1-5], the “phytotoxicity rating SORHA” value ([1]; 125 g ai/ha) is reported as 50, the “phytotoxicity rating SORHA” value ([1]; 500 g ai/ha) is reported as 95 and the “phytotoxicity rating ECHCG” value ([2]; 125 g ai/ha) is reported as 50. For the same compound, the “phytotoxicity rating ECHCG” value ([2]; 500 g ai/ha) was 90, the “phytotoxicity rating AMBEL” value ([3]; 125 g ai/ha) was 50 and the “phytotoxicity rating AMBEL” value ([3]; 500 g ai/ha) was 90. For the same compound, the “phytotoxicity rating SETVI” value ([4]; 125 g ai/ha) was 100, the “phytotoxicity rating SETVI” value ([4]; 500 g ai/ha) was 100 and the “phytotoxicity rating IPOHE” value ([5]; 125 g ai/ha) was 30. For the same compound, the “phytotoxicity rating IPOHE” value ([5]; 500 g ai/ha) was 70, the “phytotoxicity rating CHEAL” value ([6]; 125 g ai/ha) was 100 and the “phytotoxicity rating CHEAL” value ([6]; 500 g ai/ha) was 100. For the same compound, the “phytotoxicity rating DIGSA” value ([7]; 125 g ai/ha) was 100, the “phytotoxicity rating DIGSA” value ([7]; 500 g ai/ha) was 90 and the “phytotoxicity rating AMARE” value ([8]; 125 g ai/ha) was 100. For the same compound, the “phytotoxicity rating AMARE” value ([8]; 500 g ai/ha) was 100, the “phytotoxicity rating CASOB” value ([9]; 125 g ai/ha) was 50 and the “phytotoxicity rating CASOB” value ([9]; 500 g ai/ha) was 100. For the same compound, the “phytotoxicity rating ABUTH” value ([10]; 125 g ai/ha) was 70, the “phytotoxicity rating ABUTH” value ([10]; 500 g ai/ha) was 90 and the “crop damage rating CORN” value ([11]; 125 g ai/ha) was 20. The “crop damage rating CORN” value ([11]; 500 g ai/ha) was 30, the “crop damage rating RICE” value ([12]; 125 g ai/ha) was 30 and the “crop damage rating RICE” value ([12]; 500 g ai/ha) was 20. The “crop damage rating SOY” value ([13]; 125 g ai/ha) was 0, the “crop damage rating SOY” value ([13]; 500 g ai/ha) was 0 and the “AMBEL phytotoxicity rating (0-100)” value ([14]; 63 g al/ha) was 30. The “AMBEL phytotoxicity rating (0-100)” value ([14]; 500 g al/ha) was 90, the “SORHA phytotoxicity rating (0-100)” value ([15]; 63 g al/ha) was 30 and the “SORHA phytotoxicity rating (0-100)” value ([15]; 500 g al/ha) was 95. The “ECHCG phytotoxicity rating (0-100)” value ([16]; 63 g al/ha) was 30, the “ECHCG phytotoxicity rating (0-100)” value ([16]; 500 g al/ha) was 100 and the “SETVI phytotoxicity rating (0-100)” value ([17]; 63 g al/ha) was 0. For the same compound, the “SETVI phytotoxicity rating (0-100)” value ([17]; 500 g al/ha) was 100, the “IPOHE phytotoxicity rating (0-100)” value ([18]; 63 g al/ha) was 95 and the “IPOHE phytotoxicity rating (0-100)” value ([18]; 500 g al/ha) was 100. For the same compound, the “CHEAL phytotoxicity rating (0-100)” value ([19]; 63 g al/ha) was 95, the “CHEAL phytotoxicity rating (0-100)” value ([19]; 500 g al/ha) was 100 and the “DIGSA phytotoxicity rating (0-100)” value ([20]; 63 g al/ha) was 50. The “DIGSA phytotoxicity rating (0-100)” value ([20]; 500 g al/ha) was 99, the “AMARE phytotoxicity rating (0-100)” value ([21]; 63 g al/ha) was 100 and the “AMARE phytotoxicity rating (0-100)” value ([21]; 500 g al/ha) was 100. The “ABUTH phytotoxicity rating (0-100)” value ([22]; 63 g al/ha) was 30, the “ABUTH phytotoxicity rating (0-100)” value ([22]; 500 g al/ha) was 100 and the “CORN crop damage rating (0-100)” value ([23]; 63 g al/ha) was 10. For the same compound, the “CORN crop damage rating (0-100)” value ([23]; 500 g al/ha) was 30, the “RICE crop damage rating (0-100)” value ([24]; 63 g al/ha) was 40 and the “RICE crop damage rating (0-100)” value ([24]; 500 g al/ha) was 80. For the same compound, the “SOY crop damage rating (0-100)” value ([25]; 63 g al/ha) was 40 and the “SOY crop damage rating (0-100)” value ([25]; 500 g al/ha) was 90.
